Data as given in patent US20170306409A1, “CANCER PATIENT SELECTION FOR ADMINISTRATION OF WNT SIGNALING INHIBITORS USING RNF43 MUTATION STATUS” (NOVARTIS AG, priority 2012, published 2017).
Read-outs that look alike come from different tables or passages of the source.

Tests used:
HPAFII xenografts = assay: PDAC xenograft model, in vivo efficacy and pharmacodynamics; parameters: species or system mice
Description: (§1) To analyze the role of Wnt pathway activation in maintenance of RNF43 mutant pancreatic tumors in vivo, we utilized two PDAC xenograft models (HPAFII and Capan-2).
(§2) For in vivo efficacy and pharmacodynamic studies, cells were harvested at a density of 95-110% confluency. 10 million cells (HPAFII) or 3 million cells (Capan-2) mixed 50:50 with BD matrigel matrix basement membrane (Matrigel) (BD Biosciences) were subcutaneously implanted into the upper right supra-axillary region of nu/nu (Harlan) (HPAFII) or scid.bg (Harlan) (Capan-2) mice. Tumors were monitored twice weekly by calipering and tumor volumes (TV) were calculated using the ellipsoid formula: TV(mm^3)=((l×w^2)×3.14159))/6. Xenograft tumor-bearing mice were randomized to treatment groups (n=8 per group) either 14 days post tumor implant (Capan-2), when the mean tumor volume reached 223 mm^3 (range 200-250 mm^3) or 11 days post implant (HPAFII), when the mean tumor volume reached 341 mm^3 (range 272-418 mm^3). Mice were treated by oral gavage (p.o.) twice daily (BID) at a dosing volume of 10 mL/kg with either vehicle (0.5% methylcelluose (MC)/0.5% Tween 80) or a 0.65 mg/mL suspension of the fumarate salt form of LGK974 (LGK974-AE-4, free base molecular weight conversion factor 1.293) in 0.5% MC/0.5% Tween 80. In vivo doses are reported as free base equivalents. Following treatment for 14 days (HPAFII) or 35 days (Capan-2), anti-tumor activity was reported as percent treatment/control (% T/C) or % Regression (% REG) values. Anti-tumor activity was calculated using the following formula: % T/C=100 ΔΔTt/ΔCt if ΔTt≧0; or % REG=100 ΔΔTt/T0 if ΔTt<0; where: T0=mean tumor volume (TV) of the drug-treated group on the day of randomization; Tt=mean TV of the drug-treated group at study end; […]; Ct=mean TV of the control group on the final day of the study; C0=mean TV of the control group on the day of randomization; and ΔCt=C0−Ct*% T/C values in the range of 100 to 42% are interpreted to have no anti-tumor activity; % T/C values 42% and >10% are interpreted to have anti-tumor activity, % T/C values 10% or % REG≧-10% are interpreted to be tumor stasis. % REG values <-10% are interpreted as regressions. Separate, parallel cohorts of animals (n=3 per treatment and time point) were treated with vehicle or LGK974 as above to obtain tumor tissue for ex vivo analysis of pharmacodynamic markers.
(§3) Furthermore, treatment of mice bearing Capan-2 xenografts with 5 mg/kg LGK974, p.o. BID for 35 days achieved tumor stasis (T/C=5%). Consistent with the mechanism of action of LGK974, expression of the β-catenin target gene, AXIN2, was decreased in treated HPAFII and Capan-2 xenografts.

Capan-2 xenografts = assay: as above; parameters: species or system mice
Description: as §1, §2, §3

KP-2 = assay: cell line proliferation assay (Cell Titer Glo); type: cell-based, human
Experimental: (§4) The sensitivity of pancreatic cells to LGK974 treatment were tested in a cellular proliferation assay in vitro. Twenty four human pancreatic cancer cell lines were treated with or without LGK974. Cellular proliferation data was generated in 384 well format. Cells were harvested and resuspended in their appropriate growth medium at a density of 1.5×10^4 cells per mL. […] Plates were then transferred to incubators on the ACP-1 system (37° C., 5% CO2) and cells were allowed to attach overnight. […] Following compound addition, plates were returned to the incubator for 120 hours. The assay plates were read with the addition of 10 μL of 1× Cell Titer Glo (Promega G7573) according to the manufacturer's instructions. Plates were then incubated at room temperature for ten minutes and read on the integrated Perkin Elmer Viewlux (2 second exposure, 2× bin, high sensitivity). The raw data was normalized using the DMSO control wells within each plate and the curve fitting for IC50 determination was performed. Cell growth was measured five days later with Cell Titer Glo (Promega). […] As shown in TABLE 4 and Example 4, all four cell lines harbor RNF43 loss-of-function (LOF) mutations

PA-TU-8988T = assay: cell line proliferation assay (Cell Titer Glo); type: cell-based, human
Experimental: as §4

Capan-2 = assay: cell line proliferation assay (Cell Titer Glo); type: cell-based, human
Experimental: as §4

YAPC = assay: cell line proliferation assay (Cell Titer Glo); type: cell-based, human
Experimental: as §4

PA-TU-8988S = assay: cell line proliferation assay (Cell Titer Glo); type: cell-based, human
Experimental: as §4

TCC-PAN2 [1] = assay: cell line proliferation assay (Cell Titer Glo); type: cell-based, human; conditions: for IC50: Cell Titer Glo, read-out: LGK974 IC50s in cell line proliferation assay
Experimental: as §4

BXPC3 = assay: cell line proliferation assay (Cell Titer Glo); type: cell-based, human
Experimental: as §4

Axin2, YAPC = assay: Axin2 qPCR assay (pathway inhibition); type: cell-based, human
Experimental: For reverse transcription and quantitative PCR (qPCR), total RNA was extracted from cells or tumors using the RNeasy Plus Mini Kit (Qiagen). 1 μg of RNA were reverse transcribed with Taqman Reverse Transcription Reagents (Applied Biosystems) according to the manufacturer's instruction. Quantitative PCR was performed in 12 μl reactions consisting of 0.6 μl of 20× Taqman probe and PCR primer mix, 6 μl 2× Taqman FAST Advanced Master Mix (Applied Biosystems), and 5.4 μl diluted cDNA template. The thermocycling conditions utilized were 20 seconds at 95° C., followed by 40 cycles of 1 second at 95° C. and 20 seconds at 60° C. All experiments were performed in quadruplicates. Gene expression analysis was performed using the comparative ΔΔCT method and normalized with the housekeeping gene GUSB or 18S. The Taqman probes were purchased from Applied Biosystems.
Consistent with this observation, treatment of Porcupine inhibitor IWP2 or LGK974 increased the cell surface level of Frizzled and decreased the mRNA levels of AXIN2 and RNF43. See, FIG. 4(b). […] YAPC cells were treated with 3 μM of IWP-2 or 1 μM of LGK974, and subjected to flowcytometry analysis for membrane Frizzled expression.

TCC-PAN2 [2] = assay: pathway inhibition by LGK974 (Table 4); type: cell-based, human
[3] = Homo sapiens, 120 hours, Cell Titer Glo, read-out: LGK974 IC50s in cell line proliferation assay

Cc1cc(-c2ncc(CC(=O)Nc3ccc(-c4cnccn4)cn3)cc2C)ccn1 [LGK974, 2-[5-methyl-6-(2-methylpyridin-4-yl)pyridin-3-yl]-N-[5-(pyrazin-2-yl)pyridin-2-yl]acetamide]
cell cycle arrest and differentiation within the xenograft tumors (HPAFII xenografts; HPAFII xenograft tumors): induced cell cycle arrest and differentiation
T/C (tumor growth in treated relative to vehicle) (HPAFII xenografts; mice bearing HPAFII xenografts, 5 mg/kg p.o. BID for 14 days): 33%
expression of the β-catenin target gene AXIN2 in xenografts (HPAFII xenografts; treated HPAFII xenografts): decreased
cell cycle arrest and differentiation within the xenograft tumors (Capan-2 xenografts; Capan-2 xenograft tumors): induced cell cycle arrest and differentiation
T/C (tumor stasis) (Capan-2 xenografts; mice bearing Capan-2 xenografts, 5 mg/kg p.o. BID for 35 days): 5%
expression of the β-catenin target gene AXIN2 in xenografts (Capan-2 xenografts; treated Capan-2 xenografts): decreased
Inhibition fold change (1-Treated/Control) (KP-2): 0.06
IC50 (KP-2; [3]): > 2000 nM
Inhibition fold change (1-Treated/Control) (PA-TU-8988T): 0.00
IC50 (PA-TU-8988T; Homo sapiens, PaTu 8988t, 120 hours, Cell Titer Glo, read-out: LGK974 IC50s in cell line proliferation assay): > 2000 nM
Inhibition fold change (1-Treated/Control) (Capan-2): 0.40
IC50 (Capan-2; [3]): 1.8 nM
Inhibition fold change (1-Treated/Control) (YAPC): 0.20
IC50 (YAPC; [3]): > 2000 nM
Inhibition fold change (1-Treated/Control) (PA-TU-8988S): 0.40
IC50 (PA-TU-8988S; Homo sapiens, PaTuÂ 8988s, 120 hours, Cell Titer Glo, read-out: LGK974 IC50s in cell line proliferation assay): 11.6 nM
Inhibition fold change (1-Treated/Control) (TCC-PAN2 [1]): 0.02
IC50 (TCC-PAN2 [1]; 120 hours): > 2000 nM
IC50 (TCC-PAN2 [1]; Homo sapiens, 120 h): > 1700 nM
Inhibition fold change (1-Treated/Control) (BXPC3; BxPC3): 0.01
IC50 (BXPC3; Homo sapiens, BXPC-3, BXPC3, 120 hours, Cell Titer Glo, read-out: LGK974 IC50s in cell line proliferation assay): > 2000 nM
Pathway inhibition in Axin2 qPCR assay (Axin2, YAPC; YAPC): Yes
mRNA level of AXIN2 (Axin2, YAPC; YAPC cells, 1 μM of LGK974): decreased
Pathway inhibition (TCC-PAN2 [2]): Yes
